The values below come from patent publication US10399968B2, “Hydroxyalkyl thiadiazole derivatives” (Daiichi Sankyo Company, Limited, priority 2015, dated 2019).

Series [1] concerns the target Clostridium difficile DNA gyrase (Clostridioides difficile, UniProt Q18C89). Description: DNA supercoiling inhibition assay. It is filed as biochemical. The following applies: supercoiling of relaxed pBR322 DNA, 60 minutes at 37° C. On the procedure:
DNA supercoiling assays (30 μL reaction) were performed in a buffer containing 15 mM Tris-HCl pH 7.5, 13% glycerol, 6 mM MgCl2, 0.1 mg/mL BSA, 70 mM KCl, 1 mM dithioerythritol, 400 ng of DNA substrate (relaxed pBR322 DNA) and different concentrations of test compounds and/or standards. The dilutions of test compounds and standards were prepared in 20% dimethylsulfoxide (DMSO) and added 3 μL/reaction. The reaction was started by adding 2 μL amounts of Clostridium difficile DNA gyrase into the reaction mixtures and reactions were allowed to proceed for 60 minutes at 37° C. A reaction was carried out by adding 3 μL of 20% DMSO instead of test compound as full reaction control, and another reaction was carried out by adding sterile water instead of the enzyme as no reaction control.
Reactions were stopped by the addition of 5 μL of 6×loading dye and were analyzed by electrophoresis through 1.0% agarose gels with 1×TAE running buffer. Gels were run at 60 V for 3 hours, stained with EtBr, and visualized by Gel Doc system (BioRad). Intensity of the supercoiled DNA bands was quantified, and the IC50 of Clostridium difficile DNA gyrase was calculated using Graph Pad Prism.

Series [2] has as its system Clostridium difficile ATCC 43255. Put plainly: Susceptibility of Clostridium difficile, agar dilution MIC. It is filed as cell-based. The following applies: Clostridioides difficile, ATCC43255, anaerobic. On the procedure: The antibacterial activity of the compounds of the present invention against Clostridium difficile clinical isolates was tested by the agar dilution method. The assay was carried out according to the CLSI guidelines for managing the procedures of susceptibility tests “M11-A8, Methods for Antimicrobial Susceptibility Testing of Anaerobic Bacteria; Approved Standard-Eighth Edition. CLSI document (2012)”.
The test strains were spread on supplemented Brucella agar (SBA) plates and grown at 36° C. under anaerobic condition for 42 to 48 hours. The test compound dilutions were prepared with Brucella broth and SBA plates containing dilution of test compound were prepared. As an anaerobic growth control, plates not containing the test compound were also prepared. Colonies grown on plates were suspended with Brucella broth to adjust the turbidity to 0.5 McFarland using a densitometer. Suspension (1-2 μL) of the test strains was inoculated onto each agar surface by using a bacterial suspension inoculation apparatus. After anaerobic incubation at 36° C. for 42 to 48 hours, absence and presence of growth of each strain were examined with unaided eye. The MIC was determined at which a marked reduction occurs in the appearance of growth on the test plate as compared to that of growth on the anaerobic control plates.

Series [3] deals with S. aureus ATCC 29213. Put plainly: Susceptibility of bacteria, broth microdilution MIC. Conditions: Staphylococcus aureus, ATCC29213. It is filed as cell-based. On the procedure:
The antibacterial activity of the compounds of the present invention was tested by the broth microdilution method. The assay was carried out according to the CLSI guidelines for managing the procedures of susceptibility tests: “M7-A7 Methods for Dilution Antimicrobial Susceptibility Tests for Bacteria That Grow Aerobically; Approved Standard-Seventh Edition (2006)”. Test strains were grown on appropriate agar plates overnight. A broth containing the test compound diluted serially 2-fold and diluents were dispensed at 100 μL to each well of a 96-well microplate. As a growth control, a well with a broth not containing the test compound was also prepared. Colonies grown on the plates were suspended in saline, adjusted to 0.5 McFarland (OD625=0.08 to 0.10) using a colorimeter, and then diluted 10-fold with saline. The bacterial suspension was inoculated at 4 μL into each well of the microplate using a bacterial suspension inoculation apparatus. The inoculated microplate was incubated at 35° C. overnight (about 20 hours). The growth condition was observed by the naked eye, and the minimum concentration to inhibit bacterial proliferation was defined as a minimum inhibitory concentration (MIC). The MICs of compounds disclosed herein for E. faecium, Streptococcus pneumoniae and Haemophilus influenzae are shown in Table 2, while for S. aureus in Table 3.

For series [4], the system named is Staphylococcus aureus. Description: Neutropenic mouse thigh or calf muscle infection model. Conditions: neutropenic mice, compared with linezolid. It is filed as in vivo. From the text:
After culture in broth medium (i) suitable diluent of a bacterial suspension of the Staphylococcus aureus strain, or (ii) equivalent mixture of suitable diluent of a bacterial suspension of the Enterococcus faecium strain and a 10% mucin suspension were used as the inoculum. The bacterial suspension was inoculated under anesthesia with a ketamine-xylazine mixture into the thigh or calf muscle of Swiss albino mice or ICR mice (4- to 6-week-old) compromised by the cyclophosphamide administration. The drug was administered to the mice 1 to 8 times at an interval of 3 to 24 hours. The number of bacteria in the thigh or calf muscle was counted for the non-treated group immediately before initial administration of the drug (pre-control), for the non-treated group (post-control) and for the drug-administered group on the next day of administration of the drug and infection. A change in the number of bacteria in the thigh or calf muscle was used as an index of therapeutic effect.

A short description of series [5]: Solubility in water (JP1 / JP2 fluids). It is filed as physicochemical. The following applies: thermodynamic from solid. On the procedure: A 10 mmol/L solution of the test compound was prepared in DMSO and dispensed 100 μL of 10 mmol/L DMSO stock solutions into labeled glass tubes in duplicate, one for Japanese Pharmacopeia First Fluid (JP1) and second for Japanese Pharmacopeia Second Fluid (JP2). After evaporation of DMSO from each tube, 500 μL of JP1 and JP2 fluid were added in each tube, respectively. These tubes were sonicated for 1 minute and placed on shaker for 30 minutes with an interval of 30 seconds at every 5 minute. Tubes were placed in dark at room temperature for 1 hour and solution was filtered through membrane filter. The filtrate was diluted 2-fold and 10-fold. The resulting test solutions was analyzed and quantified against the standards using UPLC (standard preparation—10 mmol/L solution in DMSO is serially diluted with 50% aqueous acetonitrile solution to prepare 2 solutions; 100 μmol/L standard solution and 5 μmol/L standard solutions).

Series [6] relates to Haemophilus influenzae ATCC 49247. Put plainly: Susceptibility of bacteria, broth microdilution MIC. It is filed as cell-based. Conditions: ATCC49247. On the procedure:
(§1) The antibacterial activity of the compounds of the present invention was tested by the broth microdilution method. The assay was carried out according to the CLSI guidelines for managing the procedures of susceptibility tests: “M7-A7 Methods for Dilution Antimicrobial Susceptibility Tests for Bacteria That Grow Aerobically; Approved Standard-Seventh Edition (2006)”. Test strains were grown on appropriate agar plates overnight. A broth containing the test compound diluted serially 2-fold and diluents were dispensed at 100 μL to each well of a 96-well microplate. As a growth control, a well with a broth not containing the test compound was also prepared. Colonies grown on the plates were suspended in saline, adjusted to 0.5 McFarland (OD625=0.08 to 0.10) using a colorimeter, and then diluted 10-fold with saline. The bacterial suspension was inoculated at 4 μL into each well of the microplate using a bacterial suspension inoculation apparatus. The inoculated microplate was incubated at 35° C. overnight (about 20 hours). The growth condition was observed by the naked eye, and the minimum concentration to inhibit bacterial proliferation was defined as a minimum inhibitory concentration (MIC).

In series [7] the test system is Streptococcus pneumoniae ATCC 49619. The description is as above. It is filed as cell-based. The following applies: ATCC49619. On the procedure: as §1
Series [8] has as its system E. faecium ATCC 29212. Described as above. The following applies: Enterococcus faecium, ATCC29212. It is filed as cell-based. On the procedure:
as §1

A short description of series [9]: Oral bioavailability (BA) in monkeys. It is filed as in vivo, Macaca fascicularis. The following applies: male, cynomolgus monkey, blood, 1 mg/kg oral vs jugular vein. On the procedure:
To male Macaca fascicularis (3 or 4 year-old) fasted overnight, a solution of the test compound Captisol® was administered into the jugular vein (3 animals) and a solution of Lutrol® F68 was orally administered (3 animals). The dose of both test compounds was 1 mg/kg body weight of the monkey. The amount of Captisol® used was 0.18 mg/kg body weight of the monkey. The amount of Lutrol® F68 used was 0.02 mg/kg body weight of the monkey. The BA value was calculated by the formula below using the integration value (AUCiv(0-∞)) of the blood concentration extrapolated from time 0 to infinity after administration of both test compounds. BA(%)=[[(AUCpo(0-∞))/(dose po)]/[(AUCiv(0-∞))/(dose iv)]]×100 The greater a BA value of the compound shown, the higher the oral bioavailability is.

A short description of series [10]: Change of weight when relative humidity varied stepwise. It is filed as physicochemical. On the procedure:
The Form I thus obtained was characterized by i) the diffraction pattern obtained from powder X-ray diffraction analysis (CuK, λ=1.54 Å, scan rate=20°/min) (FIG. 2) and ii) the thermogravimetric analysis pattern (TG/DTA pattern) obtained from measurement of sample (3 mg) at heating rate of about 10° C./minute (FIG. 3). […] Further, the pattern of change of weight of the sample was shown (FIG. 4), which was observed when relative humidity was varied stepwise.
The thermogravimetric analysis pattern (TG/DTA pattern) obtained from measurement of sample (3 mg) at heating rate of about 10° C./minute is as depicted in FIG. 6. […] Further, the pattern of change of weight of the sample was shown in FIG. 7, which was observed when relative humidity was varied stepwise.

Series [11] is described as follows: Oral bioavailability (BA) in rats. It is filed as in vivo. Conditions: male, SD, blood; Rat, 2 mg/kg oral vs jugular vein. On the procedure: To SD male rats (7 week-old) fasted overnight, a solution of the test compound Captisol® was administered into the jugular vein (3 animals) and a solution of Lutrol® F68 was administered orally (3 animals). The dose of the test compounds was 2 mg/kg body weight of the rat for both administration routes. The amount of Captisol® used was 0.36 mg/kg body weight of the rat. The amount of Lutrol® F68 used was 0.02 mg/kg body weight of the rat. The BA value was calculated by the formula below using the integration value (AUCiv(0-∞)) of the blood concentration extrapolated from time 0 to infinity after administration of both test compounds. The greater a BA value of the compound shown, the higher the oral bioavailability is.

Converted amounts (≈) assume the structure as drawn. Like-named read-outs stand apart in the source and are kept apart here.

Chain of Clostridium difficile DNA gyrase (Q18C90 entry or part of it): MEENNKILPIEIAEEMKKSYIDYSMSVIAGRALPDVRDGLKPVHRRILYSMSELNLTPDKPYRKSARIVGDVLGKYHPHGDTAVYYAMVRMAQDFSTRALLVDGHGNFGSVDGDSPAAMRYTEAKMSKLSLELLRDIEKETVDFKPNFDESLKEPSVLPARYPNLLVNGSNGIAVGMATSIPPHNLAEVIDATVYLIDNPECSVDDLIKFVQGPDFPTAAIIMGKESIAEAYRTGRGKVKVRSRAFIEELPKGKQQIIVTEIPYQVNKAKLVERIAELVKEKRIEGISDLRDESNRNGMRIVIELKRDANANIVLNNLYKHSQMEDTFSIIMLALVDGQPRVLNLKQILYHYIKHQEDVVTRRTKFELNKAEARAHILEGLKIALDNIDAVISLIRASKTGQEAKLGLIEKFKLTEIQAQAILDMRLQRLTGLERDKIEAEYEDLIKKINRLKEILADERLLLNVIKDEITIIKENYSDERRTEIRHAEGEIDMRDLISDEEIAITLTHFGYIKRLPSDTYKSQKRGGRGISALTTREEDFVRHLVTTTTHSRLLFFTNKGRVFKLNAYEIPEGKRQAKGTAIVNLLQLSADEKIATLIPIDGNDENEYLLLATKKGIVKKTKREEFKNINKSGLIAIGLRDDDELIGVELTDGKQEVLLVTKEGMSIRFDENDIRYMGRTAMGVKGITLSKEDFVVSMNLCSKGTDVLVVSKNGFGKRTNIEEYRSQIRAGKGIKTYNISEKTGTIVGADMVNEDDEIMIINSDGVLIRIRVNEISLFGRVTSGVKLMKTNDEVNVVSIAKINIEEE
Chain of Clostridium difficile DNA gyrase (Q18C89 entry or part of it): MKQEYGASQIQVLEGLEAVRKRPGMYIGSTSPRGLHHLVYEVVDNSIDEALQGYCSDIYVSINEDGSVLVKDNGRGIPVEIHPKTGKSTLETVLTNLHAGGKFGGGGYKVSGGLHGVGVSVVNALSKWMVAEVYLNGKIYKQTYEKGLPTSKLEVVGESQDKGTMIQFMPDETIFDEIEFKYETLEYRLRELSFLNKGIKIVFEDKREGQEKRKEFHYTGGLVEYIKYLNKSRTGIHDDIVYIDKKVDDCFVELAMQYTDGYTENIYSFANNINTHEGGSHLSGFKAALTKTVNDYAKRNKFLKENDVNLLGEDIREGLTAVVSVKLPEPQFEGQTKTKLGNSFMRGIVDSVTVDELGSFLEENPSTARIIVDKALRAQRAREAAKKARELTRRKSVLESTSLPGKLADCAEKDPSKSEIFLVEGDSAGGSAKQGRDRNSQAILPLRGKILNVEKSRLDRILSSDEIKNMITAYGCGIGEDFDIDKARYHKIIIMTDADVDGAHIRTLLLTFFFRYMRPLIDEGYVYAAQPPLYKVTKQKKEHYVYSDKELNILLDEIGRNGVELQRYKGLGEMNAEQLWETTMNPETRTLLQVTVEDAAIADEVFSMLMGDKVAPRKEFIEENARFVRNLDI

`CCc1[nH]c(C(=O)N[C@@H]2CCN(c3nnc([C@@H](C)O)s3)C[C@@H]2OC)nc1Cl` (single isomer, unassigned) [Compound No. 4] showed an IC50 in [1] of 14.5 nM. Besides, the MIC in [2] was determined as 0.06 µg/mL (≈ 0.145 µM); in series [3], 0.5 µg/mL (≈ 1.21 µM); in [6], 1 µg/mL (≈ 2.41 µM); in series [7] it was 0.25 µg/mL (≈ 0.603 µM); in [8], 0.25 µg/mL (≈ 0.603 µM). Besides, the “therapeutic effect against Staphylococcus aureus (number of bacteria in thigh or calf muscle)” value in series [4] is given as “equivalent to or higher than linezolid”. Also, the solubility at 30 min was 612 µg/mL (≈ 1470 µM) in series [5] (Japanese Pharmacopeia First Fluid (JP1), pH 1.2, simulated gastric fluid, read-out: Solubility JP1) and 304 µg/mL (≈ 733 µM) in series [5] (Japanese Pharmacopeia Second Fluid (JP2), pH 6.8, aqueous buffer, read-out: Solubility JP2). In addition, the bioavailability in [9] amounted to 92%.
`CCc1[nH]c(C(=O)N[C@@H]2CCN(c3nnc(C(C)(C)O)s3)C[C@@H]2OC)nc1Cl` [Form I, 4-chloro-5-ethyl-N-{(3S,4R)-1-[5-(2-hydroxypropan-2-yl)-1,3,4-thiadiazol-2-yl]-3-methoxypiperidin-4-yl}-1H-imidazole-2-carboxamide] showed a change of weight in series [10] of no more than 0.3%.
For the compound `CCc1[nH]c(C(=O)N[C@@H]2CCN(c3nnc(C(C)(C)O)s3)C[C@@H]2OC)nc1Cl` [Form II, 4-chloro-5-ethyl-N-{(3S,4R)-1-[5-(2-hydroxypropan-2-yl)-1,3,4-thiadiazol-2-yl]-3-methoxypiperidin-4-yl}-1H-imidazole-2-carboxamide], in series [10], the “weight change due absorption or desorption of moisture” value is reported as “no weight change”.
In the case of `CCc1[nH]c(C(=O)N[C@@H]2CCN(c3nnc(C(C)O)s3)C[C@@H]2OC)nc1Cl` (mixture of isomers) [Compound No. 3, 4-Chloro-5-ethyl-N-{(3S,4R)-1-[5-(1-hydroxyethyl)-1,3,4-thiadiazol-2-yl]-3-methoxypiperidin-4-yl}-1H-imidazole-2-carboxamide], the MIC in series [2] stood at 0.125 µg/mL; in [3], 0.5 µg/mL. The bioavailability in series [11] was 51%; in series [9], 100%.
